Values after ≈ are worked out from the molar mass of the structure shown.
Assays:
Type in all cases: cell-based
[1] = test system: Adult Bovine Aortic Endothelial (ABAE) cell line; experiment: Antiproliferative activity in ABAE cells, PROTOCOL 1 (48 h, SRB); conditions: Bos taurus
Method: PROTOCOL 1, 2, and 3 are described in greater detail hereinbelow. In general, according to PROTOCOLS 1 and 2, the target ABAE and/or Human Tumor cells are exposed to the compound of Formula I for 48 hours. PROTOCOL 3 exposes ABAE cell to the compound for 4 days. A detailed description of the protocol is as follows: Antiproliferative Activity in Human Tumor and Adult Bovine Aortic Endothelial (ABAE) Cell Lines The antiproliferative activity of the compounds of Formula I of the present invention is evaluated in a panel comprised of human tumor cell lines and an adult bovine aortic endothelial cell line (ABAE). […] The number of cells on the plate are quantitated using a protein dye-binding assay (Monks et al., 1991). […] The optical densities are read from an automatic spectrophotometric plate reader (Dynatech) directly to a main frame computer (VAX 8600). […] Mean values and standard errors are determined from duplicate wells. […] The number of cells after treatment (P), as % of control, is calculated for every concentration of drug, as follows: [formula] wherein: T is optical density measurement for treated cells after 48 hours; C is optical density measurement for untreated cells after 48 hours; Co is optical density measurement for cells at the time of drug addition. IC50 of growth inhibition is calculated from the sets of P values using the RS-1 data package (BBN Software). […]

A2780/DDP = experiment: Antiproliferative activity in human ovarian tumor cell line A2780/DDP; conditions: Homo sapiens, A2780/DDP, read-out: A2780/DDP/DDP IC50, PROTOCOL 1 and PROTOCOL 2
Method: (§1) PROTOCOL 1, 2, and 3 are described in greater detail hereinbelow. In general, according to PROTOCOLS 1 and 2, the target ABAE and/or Human Tumor cells are exposed to the compound of Formula I for 48 hours. PROTOCOL 3 exposes ABAE cell to the compound for 4 days. A detailed description of the protocol is as follows:
(§2) Antiproliferative Activity in Human Tumor and Adult Bovine Aortic Endothelial (ABAE) Cell Lines
(§3) The antiproliferative activity of the compounds of Formula I of the present invention is evaluated in a panel comprised of human tumor cell lines and an adult bovine aortic endothelial cell line (ABAE). The human tumor cell lines are from:
(§4) All cell lines are maintained in log phase in RPMI 1640 media, supplemented with 5% fetal calf serum, penicillin/streptomycin and 2 mM L-glutamine. Cultures are renewed after 20 passages with cells from a fresh stock of batch-frozen early passage cells. Cell lines are routinely checked for mycoplasma contamination (Genprobe). In a laminar flow hood, cells (1-5×10^4) are plated into 96-well microtiter plates in a volume of 0.1 ml/well with a bulk microtiter dispenser (Denley). […] At this concentration, dimethylsulfoxide has no effect on cell growth. Compounds are added using a Tomtec dispenser which simultaneously dispenses from one 96-well plate, containing the drug dilutions, to the plates containing the cells. After two days of continuous drug exposure, 50% cold trichloroacetic acid (TCA) is added to 10% final concentration to fix the cells, and after 60 minutes at 4° C., the TCA is aspirated and the plates are washed 5 times with deionized water using a microtiter plate washer. The number of cells on the plate are quantitated using a protein dye-binding assay (Monks et al., 1991). A 0.4% solution of the dye, sulforhodamine B, in glacial acetic acid is added to the plates, and the plates are washed 5 times with 1% glacial acetic acid using the automatic plate washed. The bound stain is solubilized with 0.1 ml of 10 mM Tris base. The optical densities are read from an automatic spectrophotometric plate reader (Dynatech) directly to a main frame computer (VAX 8600).
(§5) Positive controls, that include standard chemotherapeutic drugs (i.e., adriamycin, cisplatin, etc.), are included in every experiment.
(§6) Background optical density measurements (complete media-cells, and complete media+drug-cells) are automatically subtracted from the appropriate control and test wells. Mean values and standard errors are determined from duplicate wells. A measure is also made of the optical density at time when the drugs are added. The number of cells after treatment (P), as % of control, is calculated for every concentration of drug, as follows: [formula] wherein: T is optical density measurement for treated cells after 48 hours;
(§7) C is optical density measurement for untreated cells after 48 hours;
(§8) Co is optical density measurement for cells at the time of drug addition.
(§9) IC50 of growth inhibition is calculated from the sets of P values using the RS-1 data package (BBN Software).
(§10) The antiproliferative activity of the compounds of Formula I is evaluated in a panel comprised of human tumor cell lines and an adult bovine aortic endothelial cell line (ABAE) as listed in PROTOCOL 1. This assay is a modification of PROTOCOL 1. The modifications include:
(§11) 1) each concentration for each compound is tested in a single well;
(§12) 2) compounds are tested at 20, 4, 0.8, 0.16 microgram/ml and additionally in some experiments at 100 and 0.32 microgram/ml;
(§13) 3) samples are pipetted into a 96-well plate for each of the cell lines by a Beckman Biomek 1000 SL robot;
(§14) 4) after fixing with TCA each well is washed with 0.35 ml distilled water twice, not five times;
(§15) 5) after staining with sulforhodamine B each well is washed 3 times, not five times; […]

HTB 16 = experiment: Antiproliferative activity in human tumor cell line HTB 16; conditions: Homo sapiens; ovarian tumor line; PROTOCOL 1 and PROTOCOL 2
Method: as §1, §2, §3, §4, §5, §6, §7, §8, §9, §10, §11, §12, §13, §14, §15

SW620 = experiment: Antiproliferative activity in human colon tumor cell line SW620; conditions: Homo sapiens, SW-620, PROTOCOL 1 and PROTOCOL 2
Method: as §1, §2, §3
2) Colon tumors: MIP, CaCo2, and SW620.
as §4, §5, §6, §7, §8, §9, §10, §11, §12, §13, §14, §15

**Q.** For `CN(C)c1ccc(O)c2c1C[C@H]1C[C@H]3[C@H](N(C)C)C(O)=C(C(N)=O)C(=O)[C@@]3(O)C(O)=C1C2=O` [Minocycline, reference compound], which IC50 [1] is on record?
**A.** The IC50 was 6.8 µg/mL (≈ 14.9 µM).

**Q.** What about the IC50 (A2780/DDP) of the same molecule?
**A.** The IC50 was 6.1 µg/mL (≈ 13.3 µM).

**Q.** And the IC50 (HTB 16)?
**A.** The IC50 was 5.8 µg/mL (≈ 12.7 µM).

**Q.** What about the IC50 (SW620) of the same molecule?
**A.** Its IC50 is 6.5 µg/mL (≈ 14.2 µM).

Source: patent US5563130A, “Methods for inhibiting angiogenesis, proliferation of endothelial or tumor cells and tumor growth” (American Cyanamid Company, priority 1994, dated 1996)
